Measured values reported in EP4635499A1, “PHARMACEUTICAL COMPOSITION FOR VASCULAR MALFORMATIONS AND METHOD FOR CURING VASCULAR MALFORMATIONS” (ARTham Therapeutics Inc., priority 2022, dated 2024).
“And” between values parts separate entries of the source, which are not always exact repeats. Equal values may be shown once.

Experiments:
[1] = tested on: vascular malformation patients; assay: Randomized double-blind study in vascular malformation patients: response rate and volume change of target lesion measured by MRI; assay type: in vivo, human; details: oral; for RESPONSE RATE AT 12 WEEKS OF ADMINISTRATION: once a day after breakfast, week 12, response = complete + partial (at least 20% reduction in target lesion volume, MRI); for VOLUME CHANGE (AVERAGE VALUE) OF TARGET LESION AT 24 WEEKS OF ADMINISTRATION / RESPONSE RATE AT 24 WEEKS OF ADMINISTRATION: once a day, week 24; for VOLUME CHANGE (AVERAGE VALUE) OF TARGET LESION AT 24 WEEKS OF ADMINISTRATION: MRI; for RESPONSE RATE AT 24 WEEKS OF ADMINISTRATION: primary endpoint
Method: The efficacy was confirmed in a randomized double-blind study in vascular malformation patients. A serabelisib-containing dry syrup (contained 200 mg of serabelisib in 1 g) was administered orally for 24 weeks once a day after breakfast at an adult serabelisib dose of 50 mg or an adult serabelisib dose of 100 mg. For the pediatric patients, the administered dose was made the dose calculated based on body surface area conversion according to the Crawford formula for each of the adult doses. The primary endpoint was the response rate based on the volume change (measured by MRI) of the target lesion at the end of 24 weeks of administration. In the analysis of the primary endpoint for evaluating efficacy, a complete response was defined as the disappearance of the target lesion and a partial response was defined as an at least 20% reduction in the volume of the target lesion in comparison to that at the time of the screening test. The 95% confidence interval for the response rate (the sum of complete responses and partial responses as a percentage of the total) based on the change in target lesion volume (measured by MRI) between prior to administration and the time point of completion of 24 weeks of administration, was calculated using the Clopper-Pearson method, and whether its lower limit exceeded 12.5% was checked. For the secondary endpoint, the […] based on the change in target lesion volume (measured by MRI) at the time point of completion of 12 weeks of administration was evaluated. With respect to blood vessel malformation lesions, cystic components of lymphatic malformations, lymphedema, lymph fluid, and lymphorrhea (including also intraosseous, extraosseous, and subcutaneous), which are components of vascular malformations, the target lesion detected using the T2 fat-suppressed image was selected for the target lesion and its volume was measured.

[2] = tested on: vascular malformation patients; assay: Randomized double-blind study in vascular malformation patients: pain severity by Visual Analogue Scale (VAS); assay type: in vivo, human; details: for VAS AVERAGE VALUE / VAS MEDIAN VALUE: scale 0-100
Method: The efficacy was confirmed in a randomized double-blind study in vascular malformation patients. A serabelisib-containing dry syrup (contained 200 mg of serabelisib in 1 g) was administered orally for 24 weeks once a day after breakfast at an adult serabelisib dose of 50 mg or an adult serabelisib dose of 100 mg. For the pediatric patients, the administered dose was made the dose calculated based on body surface area conversion according to the Crawford formula for each of the adult doses. The primary endpoint was the response rate based on the volume change (measured by MRI) of the target lesion at the end of 24 weeks of administration. The severity of pain at the baseline, week 4 of administration, week 12 of administration, and week 24 of administration was evaluated (using VAS). A 10-cm straight line was drawn on the recording paper; the left end was defined as 0 and the right end was defined as 100; "0" was assigned to a condition of "pain completely absent" and "100" was assigned to a condition of "the worst pain, or a more severe pain cannot be imagined"; and inquiry was made as to where the current pain level was on the straight line and this was recorded. It was also recorded when the information about a subject was provided by someone else who was not the subject. In addition, the subjects were classified into under 15 years and 15 years and over for the age when consent was obtained, and recording paper appropriate for each age group was used.

[3] = tested on: vascular malformation patients; assay: Randomized double-blind study in vascular malformation patients: hyperglycemia side effect diagnosed by a physician; assay type: in vivo, human; details: 50 mg or 100 mg serabelisib once a day for 24 weeks; 35 patients; diagnosed by a physician based on test values such as a blood glucose value
Excerpt: According to an embodiment, the side effects are hyperglycemia and hypercreatinemia. According to an embodiment, the side effect is hyperglycemia. In the present Description, "hyperglycemia" is an adverse event (side effect) associated with the pharmacological action of a drug and is diagnosed by a physician based on test values such as the blood glucose level.
The efficacy was confirmed in a randomized double-blind study in vascular malformation patients. A serabelisib-containing dry syrup (contained 200 mg of serabelisib in 1 g) was administered orally for 24 weeks once a day after breakfast at an adult serabelisib dose of 50 mg or an adult serabelisib dose of 100 mg. For the pediatric patients, the administered dose was made the dose calculated based on body surface area conversion according to the Crawford formula for each of the adult doses. The primary endpoint was the response rate based on the volume change (measured by MRI) of the target lesion at the end of 24 weeks of administration.
• (1) The study is discontinued when a test value of 140 mg/dL or higher is observed for the blood glucose level (fasting) in the clinical test performed at each visit. • (2) The study is discontinued when the clinical tests performed at each visit meets all of the following criteria stipulated for each age group.

[4] = existing therapeutic agents for vascular malformations; NPL 2, NPL 3; cited from earlier work

For `Nc1nc2cc(-c3ccc4ncc(C(=O)N5CCOCC5)n4c3)ccc2o1` [ART-001, serabelisib], the “RESPONSE RATE AT 12 WEEKS OF ADMINISTRATION” value ([1]; 50 mg serabelisib (adult dose) as dry syrup, 17 subjects) was 0% (0), the “VOLUME CHANGE (AVERAGE VALUE) OF TARGET LESION AT 24 WEEKS OF ADMINISTRATION” value ([1]; 50 mg serabelisib) was -2.3% and the “RESPONSE RATE AT 24 WEEKS OF ADMINISTRATION” value ([1]; 50 mg serabelisib, 17 subjects, 95% confidence interval 10.3% - 56.0% (Clopper-Pearson)) was 29.4% (6) and 29.4% (5). For the same molecule, the “RESPONSE RATE AT 24 WEEKS OF ADMINISTRATION” value ([1]; 50 mg serabelisib, 17 subjects, 95% confidence interval 10.3% - 56.0% (Clopper-Pearson), listed as serabelisib) was 29.4%, the “RESPONSE RATE AT 12 WEEKS OF ADMINISTRATION” value ([1]; 100 mg serabelisib (adult dose) as dry syrup, 18 subjects) was 16.7% (3) and the “VOLUME CHANGE (AVERAGE VALUE) OF TARGET LESION AT 24 WEEKS OF ADMINISTRATION” value ([1]; 100 mg serabelisib) was -12.6%. The “RESPONSE RATE AT 24 WEEKS OF ADMINISTRATION” value ([1]; 100 mg serabelisib, 18 subjects, 95% confidence interval 13.3% - 59.0% (Clopper-Pearson)) was 33.3% (6), the “RESPONSE RATE AT 24 WEEKS OF ADMINISTRATION” value ([1]; 100 mg serabelisib, 18 subjects, 95% confidence interval 13.3% - 59.0% (Clopper-Pearson), listed as serabelisib) was 33.3% and the “VAS AVERAGE VALUE” ([2]; 50 mg administration group, WEEK 4 OF ADMINISTRATION, baseline average 29.4) was 20.6. For the same molecule, the “VAS MEDIAN VALUE” ([2]; 50 mg administration group, WEEK 4 OF ADMINISTRATION, baseline median 16.0) was 6.0, the “VAS AVERAGE VALUE” ([2]; 50 mg administration group, WEEK 12 OF ADMINISTRATION, baseline average 29.4) was 21.2 and the “VAS AVERAGE VALUE” ([2]; 50 mg administration group, WEEK 24 OF ADMINISTRATION, baseline average 29.4) was 16.1. The “VAS MEDIAN VALUE” ([2]; 50 mg administration group, WEEK 24 OF ADMINISTRATION, baseline median 16.0) was 4.0, the “VAS AVERAGE VALUE” ([2]; 100 mg administration group, WEEK 4 OF ADMINISTRATION, baseline average 24.6) was 15.8 and the “VAS MEDIAN VALUE” ([2]; 100 mg administration group, WEEK 4 OF ADMINISTRATION, baseline median 20.0) was 2.0. For the same molecule, the “VAS AVERAGE VALUE” ([2]; 100 mg administration group, WEEK 12 OF ADMINISTRATION, baseline average 24.6) was 15.7, the “VAS MEDIAN VALUE” ([2]; 100 mg administration group, WEEK 12 OF ADMINISTRATION, baseline median 20.0) was 2.0 and the “VAS AVERAGE VALUE” ([2]; 100 mg administration group, WEEK 24 OF ADMINISTRATION, baseline average 24.6) was 12.4. For the same molecule, the “VAS MEDIAN VALUE” ([2]; 100 mg administration group, WEEK 24 OF ADMINISTRATION, baseline median 20.0) was 8.0, the “average values and median values of the VAS after the treatment” value ([2]; both the 50 mg administration group and the 100 mg administration group, versus baseline) was “reduced” and the Hyperglycemia side effect [3] was “no subject exhibited an event that was diagnosed as hyperglycemia”.

In the case of `Cc1nc(NC(=O)N2CCC[C@H]2C(N)=O)sc1-c1ccnc(C(C)(C)C(F)(F)F)c1` [Alpelisib, alpelisib], the known side effects [4] is given as “hyperglycemia”.

In the case of `CO[C@H]1C[C@@H]2CC[C@@H](C)[C@@](O)(O2)C(=O)C(=O)N2CCCC[C@H]2C(=O)O[C@H]([C@H](C)C[C@@H]2CC[C@@H](O)[C@H](OC)C2)CC(=O)[C@H](C)/C=C(\C)[C@@H](O)[C@@H](OC)C(=O)[C@H](C)C[C@H](C)/C=C/C=C/C=C/1C` [Sirolimus, sirolimus], the known side effects [4] is given as “immunosuppression, hyperglycemia (unknown frequency)”.
